The supplement of paper PMC10307832

Legend:
Test in all cases: relative viability (nuclei count vs DMSO), 5 days (fraction); higher = more cells survive
[1] = compound: O=C(C[C@H]1NCCC[C@@H]1O)Cn1cnc2cc(Br)c(Cl)cc2c1=O (racemic) [Halofuginone] + CS(=O)(=O)N1CCN(Cc2cc3nc(-c4cccc5[nH]ncc45)nc(N4CCOCC4)c3s2)CC1 [Pictilisib] (partner 1 µM)
Summary of the method: (§1)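 Relative viability divides the nuclei count in treated wells by that in vehicle wells. Lung cancer cell lines were seeded in 1536-well plates, dosed by pin tool the next day, and fixed and stained after 5 days in one step with final 0.05% Triton X-100, 1% formaldehyde and 1 ug/ml Hoechst. Dosing was a single drug or a fixed anchor-drug dose plus five library-drug doses (not always all listed) in √10 steps, and values are medians of duplicate plates imaged at 4×.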

[2] = compound: O=C(C[C@H]1NCCC[C@@H]1O)Cn1cnc2cc(Br)c(Cl)cc2c1=O (racemic) [Halofuginone] + Cc1cc(Nc2cc(N3CCN(C)CC3)nc(Sc3ccc(NC(=O)C4CC4)cc3)n2)n[nH]1 [Tozasertib] (partner 0.1 µM)
Summary of the method: as §1

[3] = compound: O=C(C[C@H]1NCCC[C@@H]1O)Cn1cnc2cc(Br)c(Cl)cc2c1=O (racemic) [Halofuginone] + N=C(N)NC(=N)NCCc1ccccc1 [Phenformin] (partner 250 µM)
Summary of the method: as §1

Halofuginone + Lapatinib = compound: O=C(C[C@H]1NCCC[C@@H]1O)Cn1cnc2cc(Br)c(Cl)cc2c1=O (racemic) [Halofuginone] + CS(=O)(=O)CCNCc1ccc(-c2ccc3ncnc(Nc4ccc(OCc5cccc(F)c5)c(Cl)c4)c3c2)o1 [Lapatinib] (partner 2 µM)
Summary of the method: as §1

Row | Cell Line | relative viability ([1]; first compound 0.001 µM) | relative viability ([1]; first compound 0.003162 µM) | relative viability ([1]; first compound 0.01 µM) | relative viability ([1]; first compound 0.03162 µM) | relative viability ([1]; first compound 0.1 µM) | relative viability ([2]; first compound 0.001 µM) | relative viability ([2]; first compound 0.003162 µM) | relative viability ([2]; first compound 0.01 µM) | relative viability ([2]; first compound 0.03162 µM) | relative viability ([2]; first compound 0.1 µM) | relative viability ([3]; first compound 0.001 µM) | relative viability ([3]; first compound 0.003162 µM) | relative viability ([3]; first compound 0.01 µM) | relative viability ([3]; first compound 0.03162 µM) | relative viability ([3]; first compound 0.1 µM) | relative viability (Halofuginone + Lapatinib; first compound 0.001 µM) | relative viability (Halofuginone + Lapatinib; first compound 0.003162 µM) | relative viability (Halofuginone + Lapatinib; first compound 0.01 µM) | relative viability (Halofuginone + Lapatinib; first compound 0.03162 µM) | relative viability (Halofuginone + Lapatinib; first compound 0.1 µM)
1 | NCI-H322M | 0.484 | 0.514 | 0.489 | 0.486 | 0.502 | 0.461 | 0.468 | 0.462 | 0.467 | 0.258 | 0.783 | 0.728 | 0.721 | 0.566 | 0.478 | 0.47 | 0.583 | 0.585 | 0.607 | 0.493
2 | COR-L23 | 0.954 | 0.963 | 0.801 | 0.6 | 0.156 | 0.249 | 0.218 | 0.198 | 0.153 | 0.106 | 0.489 | 0.431 | 0.482 | 0.415 | 0.303 | 0.924 | 1.06 | 0.95 | 1.01 | 0.379
3 | NCI-H2085 | 0.58 | 0.407 | 0.448 | 0.515 | 0.48 | 0.959 | 0.877 | 0.729 | 0.847 | 0.716 | 0.685 | 0.703 | 0.686 | 0.705 | 0.574 | 0.769 | 0.762 | 0.695 | 0.778 | 0.649
4 | NCI-H2087 | 0.986 | 1.01 | 0.799 | 1 | 0.831 | 0.28 | 0.322 | 0.251 | 0.23 | 0.114 | 0.487 | 0.535 | 0.424 | 0.44 | 0.362 | 1.05 | 1.29 | 1.21 | 0.959 | 1.19
5 | HCC-366 | 0.231 | 0.14 | 0.216 | 0.144 | 0.184 | 0.142 | 0.115 | 0.0951 | 0.104 | 0.0283 | 0.723 | 0.633 | 0.646 | 0.581 | 0.458 | 1.05 | 1.17 | 0.979 | 1.08 | 0.542
6 | NCI-H2126 | 0.562 | 0.486 | 0.533 | 0.485 | 0.427 | 0.918 | 0.845 | 0.859 | 0.793 | 0.62 | 0.538 | 0.56 | 0.511 | 0.512 | 0.488 | 0.798 | 0.732 | 0.773 | 0.743 | 0.683
7 | SK-LU-1 | 0.766 | 0.633 | 0.557 | 0.493 | 0.415 | 0.367 | 0.381 | 0.34 | 0.313 | 0.171 | 0.541 | 0.636 | 0.604 | 0.415 | 0.301 | 0.945 | 1.04 | 0.806 | 0.787 | 0.505
8 | HCC-78 | 0.216 | 0.193 | 0.206 | 0.21 | 0.221 | 0.491 | 0.422 | 0.503 | 0.347 | 0.427 | 0.7 | 0.667 | 0.697 | 0.739 | 0.623 | 0.931 | 0.698 | 0.707 | 0.903 | 0.137
9 | LCLC-97TM1 | 0.289 | 0.216 | 0.179 | 0.201 | 0.14 | 0.265 | 0.247 | 0.203 | 0.243 | 0.208 | 0.4 | 0.408 | 0.351 | 0.417 | 0.332 | 0.72 | 0.881 | 1.02 | 0.754 | 0.825
10 | NCI-H838 | 0.478 | 0.481 | 0.42 | 0.37 | 0.134 | 0.257 | 0.315 | 0.256 | 0.214 | 0.212 | 0.668 | 0.713 | 0.525 | 0.347 | 0.199 | 1.25 | 1.16 | 0.891 | 0.748 | 0.164
11 | NCI-H520 | 0.301 | 0.295 | 0.281 | 0.243 | 0.181 | 0.457 | 0.457 | 0.461 | 0.467 | 0.322 | 0.606 | 0.78 | 0.569 | 0.582 | 0.193 | 0.98 | 0.811 | 0.96 | 0.704 | 0.401
12 | NCI-H2347 | 0.759 | 0.636 | 0.445 | 0.699 | 0.374 | 0.558 | 0.521 | 0.662 | 0.692 | 0.418 | 0.535 | 0.521 | 0.53 | 0.477 | 0.317 | 1 | 0.853 | 0.906 | 0.918 | 0.65
13 | NCI-H1944 | 0.317 | 0.398 | 0.347 | 0.35 | 0.307 | 0.264 | 0.282 | 0.243 | 0.237 | 0.196 | 0.179 | 0.225 | 0.208 | 0.218 | 0.172 | 0.709 | 0.835 | 0.852 | 0.825 | 0.675
14 | NCI-H2405 | 0.522 | 0.504 | 0.512 | 0.478 | 0.421 | 0.906 | 0.776 | 0.682 | 0.775 | 0.64 | 0.423 | 0.436 | 0.414 | 0.396 | 0.337 | 1.14 | 1.01 | 1.02 | 1.02 | 0.861
15 | HCC-15 | 0.721 | 0.852 | 0.7 | 0.857 | 0.673 | 0.47 | 0.461 | 0.394 | 0.43 | 0.239 | 0.471 | 0.534 | 0.46 | 0.467 | 0.429 | 0.88 | 0.887 | 0.829 | 0.863 | 0.785
